From patent EP4803523A1, “FUSED HETEROARYL COMPOUND, PREPARATION METHOD THEREFOR, AND USE THEREOF IN MEDICINE” (Jiangsu Hengrui Pharmaceuticals Co., Ltd., priority 2023, dated 2025)

What was measured:
AsPC-1 = assay: 3D cell proliferation inhibition assay (CellTiter-Glo 3D); assay type: cell-based; conditions: Homo sapiens, ASPC1, 120 h; AsPC-1 cells, KRAS G12D, 3D culture, 5 days with compound
Procedure: (§1) This experiment uses the cells listed in the table below to evaluate the inhibitory effects of the compounds on the proliferation of KRAS mutant or KRAS amplified cells.
(§2) On the first day of the experiment, cells that were growing well and had reached 70%-80% confluence were digested, resuspended in culture medium, and the cell density was adjusted to the desired level. In a U-shaped low-attachment 96-well plate (Corning, 7007), 90 µL of cell suspension was added per well, with the cell density as shown in the table above. The cell plate was centrifuged at 2500 rpm for 5 minutes and then placed in an incubator for 24 hours of culture. On the second day, the 20 mM test compound dissolved in DMSO was diluted with DMSO to the first concentration of 2 or 0.2 mM, and then serially diluted in a 5-fold gradient to obtain 9 concentration points, with the control well containing DMSO. The serially diluted compound was then further diluted 20-fold with culture medium. 10 µL of the test compound diluted in culture medium was added to each well of the cell plate. The final concentrations of the compound were 9 points in a 5-fold serial dilution starting from 10 or 1 µM. Cell wells containing 0.5% DMSO were set as vehicle control wells, and wells containing only culture medium and 0.5% DMSO were set as blank control wells. The cell plate was centrifuged at 2000 rpm for 3 minutes and then placed in an incubator for 5 days of culture. On the seventh day, the 96-well cell culture plate was taken out, and 50 µL of the luminescent cell viability detection reagent, CellTiter-Glo® 3D Cell Viability Assay (Promega, G9683), was added to each well. After shaking at room temperature for 25 minutes, the mixture was pipetted up and down to mix, and 100 µL was transferred from each well to a white, opaque-bottom OptiPlate™-96 well plate (PerkinElmer, 6005290). The luminescence signal value was read using a multimode microplate reader (PerkinElmer, EnVision2105).
(§3) The inhibition rate was calculated using the following formula: Inhibition rate = (Luminescence value vehicle control well - Luminescence value test compound)/(Luminescence value vehicle control well - Luminescence value blank control well) × 100%. The IC50 values of the compound inhibitory activity were calculated using Graphpad Prism software. Table 1. Data of inhibitory activity on 3D cell proliferation (unit: nM)

GP2d = assay: as above; assay type: cell-based; conditions: GP2d cells, KRAS G12D, 3D culture, 5 days with compound
Procedure: as §1, §2, §3

AGS = assay: as above; assay type: cell-based; conditions: Homo sapiens, 120 h; AGS cells, KRAS G12D, 3D culture, 5 days with compound
Procedure: as §1, §2, §3

H358 = assay: as above; assay type: cell-based; conditions: Homo sapiens, NCI-H358, 120 h; H358 cells, KRAS G12C, 3D culture, 5 days with compound
Procedure: as §1, §2, §3

in vivo = conditions: rat, in vivo, po, 20 mg/kg
Procedure: Using SD rats as the test animals, the plasma concentrations of the example compounds at different time points were determined by LC-MS/MS following oral gavage (i.g.) administration. The pharmacokinetic behaviours of the compounds of the present disclosure in rats were investigated, and their pharmacokinetic profiles were evaluated.
Blood samples (0.2 mL) were collected from the orbit before administration and at 0.25, 0.5, 1.0, 2.0, 4.0, 6.0, 8.0, 11.0, and 24.0 hours after administration. The samples were placed in EDTA-K2 anticoagulant tubes, centrifuged at 10,000 rpm for 2 minute (4°C), and the plasma was separated within 1 hour and stored at -20°C or -80°C until analysis. The entire process from blood collection to centrifugation was performed in ice bath conditions.
The mixture was vortexed and then centrifuged at 4000 rpm for 15 minutes; the supernatant was taken for LC-MS/MS analysis. […] The mixture was vortexed and then centrifuged at 3700 rpm for 10 minutes; the supernatant was taken for LC-MS/MS analysis.
The mixture was vortexed and then centrifuged at 4000 rpm for 15 minutes; the supernatant was taken for LC-MS/MS analysis. […] The mixture was vortexed and then centrifuged at 4000 rpm for 15 minutes; the supernatant was taken for LC-MS/MS analysis.

MKN1 = assay: 3D cell proliferation inhibition assay (CellTiter-Glo 3D); assay type: cell-based; conditions: Homo sapiens, MKN-1, 120 h; MKN1 cells, KRAS Amp, 3D culture, 5 days with compound
Procedure: as §1, §2, §3

C[C@@H](O)CN1CC2CCC(C1)N2c1nc(OCC2(CN3CCC(=CF)CC3)CC2)nc2c(F)c(-c3ncc(F)c4sc(N)c(C#N)c34)c3c(c12)COC3 [Example 1, 2-amino-7-fluoro-4-(5-fluoro-3-((1-((4-(fluoromethylene)piperidin-1-yl)methyl)cyclopropyl)methoxy)-1-(3-((R)-2-hydroxypropyl)-3,8-diazabicyclo[3.2.1]oct-8-yl)-7,9-dihydrofuro[3,4-f]quinazolin-6-yl)thieno[3,2-c]pyridine-3-carbonitrile]
IC50 (AsPC-1): 4.17 nM | IC50 (GP2d; GP2d, 120 h): 0.28 nM | IC50 (AGS): 1.03 nM

N#Cc1c(N)sc2c(F)ccc(-c3c4c(c5c(N6C7CCC6CNC7)nc(OCC6(CN7CCC(=CF)CC7)CC6)nc5c3F)COC4)c12 (single isomer, unassigned) [Example 9A]
IC50 (GP2d): 0.16 nM | IC50 (AGS): 4.22 nM

N#Cc1c(N)sc2c(F)cnc(-c3c4c(c5c(N6C7CCC6CNC7)nc(OCC6(CN7CCC(=CF)CC7)CC6)nc5c3F)COC4)c12 [Example 1i, 4-(1-(3,8-diazabicyclo[3.2.1]oct-8-yl)-5-fluoro-3-((1-((4-(fluoromethylene)piperidin-1-yl)methyl)cyclopropyl)methoxy)-7,9-dihydrofuro[3,4-f]quinazolin-6-yl)-2-amino-7-fluorothieno[3,2-c]pyridine-3-carbonitrile]
IC50 (AsPC-1): 5.07 nM | IC50 (GP2d; GP2d, 120 h): 0.34 nM | IC50 (AGS): 1.03 nM

N#Cc1c(N)sc2c(F)cnc(-c3c4c(c5c(N6C7CCC6CNC7)nc(OCC6(CN7CCC(=C(F)F)CC7)CC6)nc5c3F)COC4)c12 [Example 20, 4-(1-(3,8-diazabicyclo[3.2.1]oct-8-yl)-3-((1-((4-(difluoromethylene)piperidin-1-yl)methyl)cyclopropyl)methoxy)-5-fluoro-7,9-dihydrofuro[3,4-f]quinazolin-6-yl)-2-amino-7-fluorothieno[3,2-c]pyridine-3-carbonitrile]
IC50 (AsPC-1): 7.56 nM | IC50 (GP2d; GP2d, 120 h): 0.27 nM | IC50 (AGS): 2.09 nM

N#Cc1c(N)sc2c(F)ccc(-c3c4c(c5c(N6C7CCC6CNC7)nc(OCC6(CN7CCC(=C(F)F)CC7)CC6)nc5c3F)COC4)c12 [Example 11, 4-(1-(3,8-diazabicyclo[3.2.1]oct-8-yl)-3-((1-((4-(difluoromethylene)piperidin-1-yl)methyl)cyclopropyl)methoxy)-5-fluoro-7,9-dihydrofuro[3,4-f]quinazolin-6-yl)-2-amino-7-fluorobenzo[b]thiophene-3-carbonitrile]
IC50 (GP2d; GP2d, 120 h): 0.86 nM | IC50 (AGS): 8.64 nM

N#Cc1c(N)sc2c(F)ccc(-c3c4c(c5c(N6C7CCC6CNC7)nc(OCC6(CN7CCC(=CF)CC7)CC6)nc5c3F)COC4)c12 (single isomer, unassigned) [Example 9B]
IC50 (GP2d): 2.6 nM

C=CC(=O)N1CC2CCC(C1)N2c1nc(OCC2(CN3CCC(=C(F)F)CC3)CC2)nc2c(F)c(-c3ncc(F)c4sc(N)c(C#N)c34)c3c(c12)COC3 [Example 55]
IC50 (H358): 0.63 nM

N#Cc1c(N)sc2c(F)ccc(-c3c4c(c5c(N6C7CCC6CNC7)nc(OCC67CCCN6CC(=C(F)F)C7)nc5c3F)COC4)c12 (centres unmarked) [Example 17, 4-(1-(3,8-Diazabicyclo[3.2.1]oct-8-yl)-3-((2-(difluoromethylene)tetrahydro-1H-pyrrolizin-7a(5H)-yl)methoxy)-5-fluoro-7,9-dihydrofuro[3,4-f]quinazolin-6-yl)-2-amino-7-fluorobenzo[b]thiophene-3-carbonitrile]
IC50 (GP2d; GP2d, 120 h): 0.57 nM | IC50 (AGS): 2.86 nM

C=CC(=O)N1C[C@H](C)N(c2nc(OCC3(CN4CCC(=C(F)F)CC4)CC3)nc3c(F)c(-c4ncc(F)c5sc(N)c(C#N)c45)c4c(c23)COC4)C[C@H]1C [Example 56]
IC50 (H358): 6.76 nM

N#Cc1c(N)sc2c(F)ccc(-c3c4c(c5cnc(OC[C@@]67CCCN6C[C@H](F)C7)nc5c3Cl)COC4)c12 (single isomer, unassigned) [60A (reference), reference compound]
AUC(0-t) (in vivo): 1820 ng·h/mL | CL/F (in vivo): 178 mL/min/kg | Cmax (in vivo): 143 ng/mL | Vd/F (in vivo): 54.5 L/kg | half-life (in vivo): 3.53 h

N#Cc1c(N)sc2ccc(F)c(-c3c4c(c5cnc(OCC6(CN7CCC(=CF)CC7)CC6)nc5c3F)COC4)c12 [Example 40, 2-Amino-5-fluoro-4-(5-fluoro-3-((1-((4-(fluoromethylene)piperidin-1-yl)methyl)cyclopropyl)methoxy)-7,9-dihydrofuro[3,4-f]quinazolin-6-yl)benzo[b]thiophene-3-carbonitrile]
IC50 (MKN1): 11.1 nM | IC50 (GP2d; GP2d, 120 h): 8.4 nM

N#Cc1c(N)sc2c(F)ccc(-c3c4c(c5c(N6C7CCC6CNC7)nc(OCC6(CN7CCC(=CF)CC7)CC6)nc5c3F)COC4)c12 [Example 9, 4-(1-(3,8-diazabicyclo[3.2.1]oct-8-yl)-5-fluoro-3-((1-((4-(fluoromethylene)piperidin-1-yl)methyl)cyclopropyl)methoxy)-7,9-dihydrofuro[3,4-f]quinazolin-6-yl)-2-amino-7-fluorobenzo[b]thiophene-3-carbonitrile]
IC50 (AsPC-1): 9.95 nM | IC50 (GP2d; GP2d, 120 h): 0.26 nM | IC50 (AGS): 1.09 nM

C=C1CN2CC(=C)CC2(COc2ncc3c4c(c(-c5ccc(F)c6sc(N)c(C#N)c56)c(F)c3n2)COC4)C1 [Example 26, 2-Amino-4-(3-((2,6-dimethylenetetrahydro-1H-pyrrolizin-7a(5H)-yl)methoxy)-5-fluoro-7,9-dihydrofuro[3,4-f]quinazolin-6-yl)-7-fluorobenzo[b]thiophene-3-carbonitrile]
IC50 (MKN1): 13.2 nM | IC50 (GP2d; GP2d, 120 h): 9.79 nM

C=C1CN2CC(=C)CC2(COc2nc(N3C4CCC3CNC4)c3c4c(c(-c5ccc(F)c6sc(N)c(C#N)c56)c(F)c3n2)COC4)C1 [Example 18, 4-(1-(3,8-Diazabicyclo[3.2.1]oct-8-yl)-3-((2,6-dimethylenetetrahydro-1H-pyrrolizin-7a(5H)-yl)methoxy)-5-fluoro-7,9-dihydrofuro[3,4-f]quinazolin-6-yl)-2-amino-7-fluorobenzo[b]thiophene-3-carbonitrile]
IC50 (GP2d; GP2d, 120 h): 0.53 nM | IC50 (AGS): 4.89 nM

C[C@@H](O)CN1CC2CCC(C1)N2c1nc(OCC2(C#N)CC2)nc2c(F)c(-c3ncc(F)c4sc(N)c(C#N)c34)c3c(c12)COC3 [58 (reference), reference compound]
IC50 (AsPC-1): 3330 nM | IC50 (GP2d; GP2d, 120 h): > 1000 nM | IC50 (AGS): 2000 nM

N#Cc1c(N)sc2c(F)cnc(-c3c4c(c5c(N6C7CCC6CN(O)C7)nc(OCC6(CN7CCC(=CF)CC7)CC6)nc5c3F)COC4)c12 [Example 22, 2-Amino-7-fluoro-4-(5-fluoro-3-((1-((4-(fluoromethylene)piperidin-1-yl)methyl)cyclopropyl)methoxy)-1-(3-hydroxyl-3,8-diazabicyclo[3.2.1]oct-8-yl)-7,9-dihydrofuro[3,4-f]quinazolin-6-yl)thieno[3,2-c]pyridine-3-carbonitrile]
IC50 (AsPC-1): 4.64 nM | IC50 (GP2d; GP2d, 120 h): 0.26 nM | IC50 (AGS): 1.57 nM

N#Cc1c(N)sc2c(F)cnc(-c3c4c(c5c(N6C7CCC6CN(O)C7)nc(OCC6(CN7CCC(=C(F)F)CC7)CC6)nc5c3F)COC4)c12 [Example 21, 2-Amino-4-(3-((1-((4-(difluoromethylene)piperidin-1-yl)methyl)cyclopropyl)methoxy)-5-fluoro-1-(3-hydroxyl-3,8-diazabicyclo[3.2.1]oct-8-yl)-7,9-dihydrofuro[3,4-f]quinazolin-6-yl)-7-fluorothieno[3,2-c]pyridine-3-carbonitrile]
IC50 (GP2d; GP2d, 120 h): 2.12 nM

N#Cc1c(N)sc2c(F)ccc(-c3c4c(c5c(N6C7CCC6CNC7)nc(OCC67CCCN6CC(=CF)C7)nc5c3F)COC4)c12 (centres unmarked) [Example 13, 4-(1-(3,8-Diazabicyclo[3.2.1]oct-8-yl)-5-fluoro-3-((2-(fluoromethylene)tetrahydro-1H-pyrrolizin-7a(5H)-yl)methoxy)-7,9-dihydrofuro[3,4-f]quinazolin-6-yl)-2-amino-7-fluorobenzo[b]thiophene-3-carbonitrile]
IC50 (GP2d; GP2d, 120 h): 0.39 nM | IC50 (AGS): 2.19 nM

N#Cc1c(N)sc2c(F)ccc(-c3c4c(c5cnc(OCC6(CN7CCC(=CF)CC7)CC6)nc5c3F)COC4)c12 [Example 14, 2-Amino-7-fluoro-4-(5-fluoro-3-((1-((4-(fluoromethylene)piperidin-1-yl)methyl)cyclopropyl)methoxy)-7,9-dihydrofuro[3,4-f]quinazolin-6-yl)benzo[b]thiophene-3-carbonitrile]
IC50 (MKN1): 8.1 nM | IC50 (GP2d; GP2d, 120 h): 5.85 nM | IC50 (AGS): 15.1 nM
